Results published in publication PMC3585750, “Modulation of TRP channels by resveratrol and other stilbenoids” (Molecular Pain, 2013).

How the values were obtained:
TRPA1 (mTRPA1) [1] = molecular target: T1, TRPA1 (mTRPA1) (Mus musculus, UniProt Q8BLA8); assay: whole-cell patch clamp, agonist concentration-response in transfected HEK293 cells; no current in untransfected cells; type: cell-based
TRPA1 (mTRPA1) [2] = molecular target: T1, TRPA1 (mTRPA1); assay: whole-cell patch clamp, inhibition of AITC-induced current in transfected HEK293 cells; type: cell-based

T1 sequence (Q8BLA8 whole entry): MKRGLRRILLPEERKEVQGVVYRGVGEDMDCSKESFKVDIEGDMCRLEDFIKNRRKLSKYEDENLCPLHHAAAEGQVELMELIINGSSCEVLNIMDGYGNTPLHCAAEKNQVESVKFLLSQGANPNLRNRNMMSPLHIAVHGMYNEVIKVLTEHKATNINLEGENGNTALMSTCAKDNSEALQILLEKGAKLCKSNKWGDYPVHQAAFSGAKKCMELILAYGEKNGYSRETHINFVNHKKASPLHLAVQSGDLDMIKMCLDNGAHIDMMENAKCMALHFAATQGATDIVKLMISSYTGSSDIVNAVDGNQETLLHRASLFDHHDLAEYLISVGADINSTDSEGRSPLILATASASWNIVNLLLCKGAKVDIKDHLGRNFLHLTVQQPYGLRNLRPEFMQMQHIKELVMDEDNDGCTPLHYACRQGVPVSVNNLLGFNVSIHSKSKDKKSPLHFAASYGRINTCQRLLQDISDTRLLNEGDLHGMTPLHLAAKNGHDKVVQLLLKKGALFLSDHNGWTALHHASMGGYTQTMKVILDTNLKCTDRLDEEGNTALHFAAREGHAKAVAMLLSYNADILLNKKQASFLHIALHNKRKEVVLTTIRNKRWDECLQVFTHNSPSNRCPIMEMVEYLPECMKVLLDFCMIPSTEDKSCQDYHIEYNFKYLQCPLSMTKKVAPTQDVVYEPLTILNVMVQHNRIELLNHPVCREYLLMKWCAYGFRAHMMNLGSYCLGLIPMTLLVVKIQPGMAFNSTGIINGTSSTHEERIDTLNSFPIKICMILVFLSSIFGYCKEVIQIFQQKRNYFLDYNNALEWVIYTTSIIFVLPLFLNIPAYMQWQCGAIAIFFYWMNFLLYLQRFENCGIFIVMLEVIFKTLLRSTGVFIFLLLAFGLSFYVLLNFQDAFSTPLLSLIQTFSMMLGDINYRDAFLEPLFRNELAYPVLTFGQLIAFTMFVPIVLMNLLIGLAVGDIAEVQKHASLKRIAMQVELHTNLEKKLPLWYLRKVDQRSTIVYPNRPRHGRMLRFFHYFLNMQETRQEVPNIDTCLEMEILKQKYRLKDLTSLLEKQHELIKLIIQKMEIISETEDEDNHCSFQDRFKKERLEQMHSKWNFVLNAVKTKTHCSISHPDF

| Structure (SMILES) | EC50 (TRPA1 (mTRPA1) [1]) [µM] | IC50 (TRPA1 (mTRPA1) [2]) [µM] |
| --- | --- | --- |
| C=CCN=C=S [AITC, allyl isothiocyanate] | 61.2 |  |
| Oc1ccc(/C=C/c2cc(O)cc(O)c2)cc1 [RES, 3,5,4’ - trihydroxy-trans-stilbene] |  | ~0.75 |
